Reference: patent US8846669B2, “Oxazolidinone derivative and medical composition containing same” (Legochem Biosciences, Inc., priority 2011, dated 2014)
Converted amounts (≈) assume the structure as drawn. Where two headings read alike, the source gives them in different places.

Legend:
Assay in all cases: In vitro antibacterial activity, broth microdilution MIC90
Format in all cases: cell-based
Enterococcus faecalis = conditions: strain 5, E. faecalis
Method in brief: (§1)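 Broth microdilution per CLSI M7-A5 guidelines, run against a 12-strain panel of staphylococci, enterococci and Moraxella catarrhalis. Final test compound concentrations spanned 0.063 to 128 μg/mL with 2.5% (V/V) DMSO as excipient; linezolid served as control.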

Enterococcus faecium = conditions: strain 8, E. faecium
Method in brief: as §1

[1] = system: Linezolid and Vancomycin Resistant Enterococcus faecalis; conditions: strain 7, E. faecalis VanA LR
Method in brief: as §1

[2] = system: Linezolid and Vancomycin Resistant Enterococcus faecium (strain 10); conditions: strain 10, E. faecium VanA LR
Method in brief: as §1

[3] = system: Linezolid and Vancomycin Resistant Enterococcus faecium (strain 11); conditions: strain 11, E. faecium VanA LR
Method in brief: as §1

[4] = system: Methicillin Resistant Staphylococcus aureus; conditions: strain 2, S. aureus MR
Method in brief: as §1

[5] = system: Methicillin Resistant Staphylococcus epidermidis; conditions: strain 4, S. epidermidis MR
Method in brief: as §1

Moraxella catarrhalis = conditions: strain 12, M. catarrhalis
Method in brief: as §1

Staphylococcus aureus = conditions: strain 1, S. aureus
Method in brief: as §1

[6] = system: Staphylococcus epidermidis; conditions: strain 3, S. epidermidis
Method in brief: as §1

[7] = system: Vancomycin Resistant Enterococcus faecalis; conditions: strain 6, E. faecalis VanA
Method in brief: as §1

[8] = system: Vancomycin Resistant Enterococcus faecium; conditions: strain 9, E. faecium VanA
Method in brief: as §1

[9] = Enterococcus faecalis, read-out: MIC90
[10] = Enterococcus faecium, read-out: MIC90
[11] = Staphylococcus aureus, read-out: MIC90
[12] = Staphylococcus epidermidis, read-out: MIC90
[13] = Moraxella catarrhalis, read-out: MIC90

SMILES	MIC90 (Enterococcus faecalis; [9])	MIC90 (Enterococcus faecium; [10])	MIC90 [1, 9]	MIC90 [2, 10]	MIC90 [3, 10]	MIC90 [4, 11]	MIC90 [5, 12]	MIC90 (Moraxella catarrhalis; [13])	MIC90 (Staphylococcus aureus; [11])	MIC90 [6, 12]	MIC90 [7, 9]	MIC90 [8, 10]	further results
COC(=O)NC[C@H]1CN(c2ccc(-c3ccc(C4=NOCCN4)nc3)c(F)c2)C(=O)O1 [Compound 65]	0.5 µg/mL (≈ 1.16 µM)	0.5 µg/mL (≈ 1.16 µM)	4 µg/mL (≈ 9.32 µM)	4 µg/mL (≈ 9.32 µM)	4 µg/mL (≈ 9.32 µM)	0.5 µg/mL (≈ 1.16 µM)	1 µg/mL (≈ 2.33 µM)	2 µg/mL (≈ 4.66 µM)	0.5 µg/mL (≈ 1.16 µM)	0.5 µg/mL (≈ 1.16 µM)	0.5 µg/mL (≈ 1.16 µM)	0.5 µg/mL (≈ 1.16 µM)	–
O=C1O[C@@H](Cn2ccnn2)CN1c1ccc(-c2ccc(C3=NOCCN3)nc2)c(F)c1 [Compound 66]	0.25 µg/mL (≈ 0.59 µM)	0.125 µg/mL (≈ 0.295 µM)	1 µg/mL (≈ 2.36 µM)	1 µg/mL (≈ 2.36 µM)	2 µg/mL (≈ 4.72 µM)	0.5 µg/mL (≈ 1.18 µM)	0.5 µg/mL (≈ 1.18 µM)	1 µg/mL (≈ 2.36 µM)	0.125 µg/mL (≈ 0.295 µM)	0.25 µg/mL (≈ 0.59 µM)	0.25 µg/mL (≈ 0.59 µM)	0.25 µg/mL (≈ 0.59 µM)	–
O=C1O[C@@H](CNc2ccon2)CN1c1ccc(-c2ccc(C3=NOCCN3)nc2)c(F)c1 [Compound 67]	–	–	–	–	–	–	–	–	–	–	–	–	MIC90 (Enterococcus faecalis): 0.5 µg/mL (≈ 1.14 µM); MIC90 (Enterococcus faecium): 0.25 µg/mL (≈ 0.57 µM); MIC90 [1]: 2 µg/mL (≈ 4.56 µM); MIC90 [2]: 2 µg/mL (≈ 4.56 µM); MIC90 [3]: 2 µg/mL (≈ 4.56 µM); MIC90 [4]: 0.5 µg/mL (≈ 1.14 µM); MIC90 [5]: 0.5 µg/mL (≈ 1.14 µM); MIC90 (Moraxella catarrhalis): 1 µg/mL (≈ 2.28 µM); MIC90 (Staphylococcus aureus): 0.25 µg/mL (≈ 0.57 µM); MIC90 [6]: 0.25 µg/mL (≈ 0.57 µM); MIC90 [7]: 0.5 µg/mL (≈ 1.14 µM); MIC90 [8]: 0.5 µg/mL (≈ 1.14 µM)
O=C1O[C@@H](COc2ccon2)CN1c1ccc(-c2ccc(C3=NOCCN3)nc2)c(F)c1 [Compound 68]	–	–	–	–	–	–	–	–	–	–	–	–	MIC90 (Enterococcus faecalis): 1 µg/mL (≈ 2.28 µM); MIC90 (Enterococcus faecium): 0.25 µg/mL (≈ 0.569 µM); MIC90 [1]: >128 µg/mL; MIC90 [2]: >128 µg/mL; MIC90 [3]: >128 µg/mL; MIC90 [4]: 1 µg/mL (≈ 2.28 µM); MIC90 [5]: 2 µg/mL (≈ 4.55 µM); MIC90 (Moraxella catarrhalis): >128 µg/mL; MIC90 (Staphylococcus aureus): 0.5 µg/mL (≈ 1.14 µM); MIC90 [6]: 1 µg/mL (≈ 2.28 µM); MIC90 [7]: 2 µg/mL (≈ 4.55 µM); MIC90 [8]: 1 µg/mL (≈ 2.28 µM)
CC(=O)NC[C@H]1CN(c2ccc(N3CCOCC3)c(F)c2)C(=O)O1 [LZD, Linezolid, reference compound]	2 µg/mL (≈ 5.93 µM)	1 µg/mL (≈ 2.96 µM)	32 µg/mL (≈ 94.9 µM)	32 µg/mL (≈ 94.9 µM)	64 µg/mL (≈ 190 µM)	2 µg/mL (≈ 5.93 µM)	2 µg/mL (≈ 5.93 µM)	8 µg/mL (≈ 23.7 µM)	1 µg/mL (≈ 2.96 µM)	1 µg/mL (≈ 2.96 µM)	2 µg/mL (≈ 5.93 µM)	2 µg/mL (≈ 5.93 µM)	–

Now from value to compound, other results behind:

MIC90 (Enterococcus faecalis; [9])	MIC90 (Enterococcus faecium; [10])	MIC90 [1, 9]	MIC90 [2, 10]	MIC90 [3, 10]	MIC90 [4, 11]	MIC90 [5, 12]	MIC90 (Moraxella catarrhalis; [13])	MIC90 (Staphylococcus aureus; [11])	MIC90 [6, 12]	MIC90 [7, 9]	MIC90 [8, 10]	SMILES	further results
2 µg/mL (≈ 4.51 µM)	1 µg/mL (≈ 2.26 µM)	16 µg/mL (≈ 36.1 µM)	16 µg/mL (≈ 36.1 µM)	16 µg/mL (≈ 36.1 µM)	2 µg/mL (≈ 4.51 µM)	4 µg/mL (≈ 9.02 µM)	8 µg/mL (≈ 18 µM)	2 µg/mL (≈ 4.51 µM)	1 µg/mL (≈ 2.26 µM)	2 µg/mL (≈ 4.51 µM)	2 µg/mL (≈ 4.51 µM)	COC(=O)NC[C@H]1CN(c2ccc(-c3ccc(N4CCON=C4C)nc3)c(F)c2)C(=O)O1 [Compound 63]	–
0.25 µg/mL (≈ 0.605 µM)	0.25 µg/mL (≈ 0.605 µM)	1 µg/mL (≈ 2.42 µM)	1 µg/mL (≈ 2.42 µM)	2 µg/mL (≈ 4.84 µM)	0.5 µg/mL (≈ 1.21 µM)	0.5 µg/mL (≈ 1.21 µM)	2 µg/mL (≈ 4.84 µM)	0.25 µg/mL (≈ 0.605 µM)	0.25 µg/mL (≈ 0.605 µM)	0.25 µg/mL (≈ 0.605 µM)	0.25 µg/mL (≈ 0.605 µM)	CC(=O)NC[C@H]1CN(c2ccc(-c3ccc(C4=NOCCN4)nc3)c(F)c2)C(=O)O1 [Compound 64]	–
1 µg/mL (≈ 2.34 µM)	1 µg/mL (≈ 2.34 µM)	2 µg/mL (≈ 4.68 µM)	4 µg/mL (≈ 9.36 µM)	4 µg/mL (≈ 9.36 µM)	2 µg/mL (≈ 4.68 µM)	2 µg/mL (≈ 4.68 µM)	8 µg/mL (≈ 18.7 µM)	0.5 µg/mL (≈ 1.17 µM)	0.5 µg/mL (≈ 1.17 µM)	1 µg/mL (≈ 2.34 µM)	1 µg/mL (≈ 2.34 µM)	CC(=O)NC[C@H]1CN(c2ccc(-c3ccc(C4=NOCCN4C)nc3)c(F)c2)C(=O)O1 [Compound 69]	–
2 µg/mL (≈ 4.51 µM)	1 µg/mL (≈ 2.26 µM)	8 µg/mL (≈ 18 µM)	8 µg/mL (≈ 18 µM)	8 µg/mL (≈ 18 µM)	2 µg/mL (≈ 4.51 µM)	4 µg/mL (≈ 9.02 µM)	4 µg/mL (≈ 9.02 µM)	1 µg/mL (≈ 2.26 µM)	1 µg/mL (≈ 2.26 µM)	2 µg/mL (≈ 4.51 µM)	1 µg/mL (≈ 2.26 µM)	COC(=O)NC[C@H]1CN(c2ccc(-c3ccc(C4=NOCCN4C)nc3)c(F)c2)C(=O)O1 [Compound 70]	–
4 µg/mL (≈ 10.4 µM)	2 µg/mL (≈ 5.18 µM)	16 µg/mL (≈ 41.4 µM)	8 µg/mL (≈ 20.7 µM)	16 µg/mL (≈ 41.4 µM)	4 µg/mL (≈ 10.4 µM)	4 µg/mL (≈ 10.4 µM)	8 µg/mL (≈ 20.7 µM)	2 µg/mL (≈ 5.18 µM)	2 µg/mL (≈ 5.18 µM)	2 µg/mL (≈ 5.18 µM)	2 µg/mL (≈ 5.18 µM)	CN1CCON=C1c1ccc(-c2ccc(N3C[C@H](CO)OC3=O)cc2F)cn1 [Compound 71]	–
